Changes are numbered by the printed parent chain. Where no end group is shown, it is not given here. The star is where a group is joined. Dansyl = CN(C)c1cccc2c(S(=O)(=O)*)cccc12; TAMRA = carboxytetramethylrhodamine
Legend:
[1] = target: T1, Mint2 PARM 364-570 (Y524W), pWT PARM (PTB domain and ARM linker) (Homo sapiens, UniProt Q99767, Y524W); assay: Stopped flow binding kinetics, APP peptides to PARM (pseudo-wild type)
T1 construct: made in house; host or cells: Escherichia coli BL21(DE3)pLysS
T1 sequence (Q99767 364-570 Y524W): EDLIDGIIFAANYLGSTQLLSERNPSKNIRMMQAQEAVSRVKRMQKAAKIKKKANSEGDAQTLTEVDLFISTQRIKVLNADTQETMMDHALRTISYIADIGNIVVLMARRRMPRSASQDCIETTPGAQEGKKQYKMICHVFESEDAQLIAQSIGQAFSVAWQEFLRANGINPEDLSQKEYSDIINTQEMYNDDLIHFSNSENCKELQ
Procedure: (§1) Kinetic binding rate constants were obtained using an upgraded SX17 stopped flow spectrometer (Applied Photophysics), and all experiments were conducted at 25 °C in 500 mM NaCl and 25 mM HEPES (pH 7.4). The relatively high NaCl concentration was used to improve the solubility of the proteins. The change in tryptophan fluorescence was measured using a band-pass filter (excitation at 280 nm and emission at 330 ± 30 nm) when mixing varying concentrations (2–50 μM) of the dansyl peptides with 1 μM protein or 0.5 μM semisynthetic proteins. […] For PTB variants, we used the kobs value from the fast kinetic phase for the analysis. […] We report the errors in kon and koff from the curve fitting. […] For these koff determinations, we report the standard error of the mean of three replicates. Φ values were defined as ΔΔGTS/ΔΔGeq, where ΔΔGTS = RT ln(kon^WT/kon^mut.) and ΔΔGeq = RT ln(Kd^mut./Keq^WT). Calculated coupling free energies were defined as ΔΔΔGEq = RT ln(Kd^mut.:WTKd^WT:mut./Kd^WT:WTKd^mut.:mut.) or ΔΔΔGTS = RT ln(kon^WT:WTkon^mut.:mut./kon^mut.:WTkon^WT:mut.) as previously described.[27] Propagated errors are reported.

[2] = target: Mint2 PTB 364-538 (Homo sapiens, UniProt Q99767, Y524W); assay: biochemical
[3] = target: Mint2 PARMWT 364-570 (Homo sapiens, UniProt Q99767); assay: biochemical
[4] = target: T2, Mint2 PARM 364-570 (Y524W, Y543A) (Homo sapiens, UniProt Q99767, Y524W/Y543A); assay: Stopped flow binding kinetics, APP peptides to PARM^Y543A; design: made in house; host or cells: Escherichia coli BL21(DE3)pLysS
T2 sequence (Q99767 364-570 Y524W/Y543A): T1 sequence (Q99767 364-570 Y524W) with Y180A
Procedure: as §1

[5] = target: T3, Mint2 PTB 364-538 (without the ARM linker) (Homo sapiens, UniProt Q99767, Y524W); assay: Stopped flow binding kinetics, APP peptides to PTB
T3 construct: made in house; host or cells: Escherichia coli BL21(DE3)pLysS
T3 sequence (Q99767 364-538 Y524W): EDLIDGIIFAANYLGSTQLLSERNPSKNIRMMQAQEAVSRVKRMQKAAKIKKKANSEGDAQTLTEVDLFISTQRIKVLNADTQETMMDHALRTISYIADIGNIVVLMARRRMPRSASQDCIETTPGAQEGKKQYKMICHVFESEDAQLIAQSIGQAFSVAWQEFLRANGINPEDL
Procedure: as §1

[6] = target: T4, Mint2 PARM 364-570 (Y524W, Y543E) (Homo sapiens, UniProt Q99767, Y524W/Y543E); assay: biochemical
T4 sequence (Q99767 364-570 Y524W/Y543E): T1 sequence (Q99767 364-570 Y524W) with Y180E

[7] = target: T2, Mint2 PARM 364-570 (Y524W, Y543A); assay: biochemical
[8] = target: Mint2 PARM 364-570 (Y524W) (Homo sapiens, UniProt Q99767, Y524W); assay: biochemical
[9] = target: T4, Mint2 PARM 364-570 (Y524W, Y543E); assay: Stopped flow binding kinetics, APP peptides to PARM^Y543E; design: made in house; host or cells: Escherichia coli BL21(DE3)pLysS
Procedure: as §1

[10] = target: T5, PARM^WT (Mint2 residues 364-570) (human, UniProt Q99767 364-570); assay: fluorescence polarisation; settings: both partners purified
[11] = target: T6, pseudo-wild type (pWT) PARM domain of Mint2 (residues 364-570, Y524W) (human, UniProt Q99767 364-570, Y524W); assay: fluorescence polarisation; settings: both partners purified
[12] = target: PARM, pseudo-wild type (human Mint2 364-570, Y524W) (human, UniProt Q99767 364-570, Y524W); assay: fluorescence polarisation; settings: both partners purified
[13] = target: PTB (human Mint2 PTB domain without the ARM linker, residues 364-538, Y524W) (human, UniProt Q99767 364-538, Y524W); assay: fluorescence polarisation; settings: both partners purified
[14] = target: PARM^Y543E (human Mint2 364-570, Y524W, Y543E) (human, UniProt Q99767 364-570, Y524W | Y543E); assay: fluorescence polarisation; settings: both partners purified
PARM^Y543E (human Mint2 364-570, Y524W, Y543E), sequence (Q99767 364-570 Y524W/Y543E): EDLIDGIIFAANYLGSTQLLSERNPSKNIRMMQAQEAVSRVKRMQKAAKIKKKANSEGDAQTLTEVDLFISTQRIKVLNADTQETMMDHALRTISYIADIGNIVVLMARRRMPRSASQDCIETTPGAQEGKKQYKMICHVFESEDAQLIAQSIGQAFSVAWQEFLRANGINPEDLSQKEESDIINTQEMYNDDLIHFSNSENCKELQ

[15] = target: PARM^Y543A (human Mint2 364-570, Y524W, Y543A) (human, UniProt Q99767 364-570, Y524W | Y543A); assay: fluorescence polarisation; settings: both partners purified
[16] = target: PARM^WT (human Mint2 PTB domain with ARM linker, residues 364-570, no Y524W) (human, UniProt Q99767 364-570); assay: fluorescence polarisation; settings: both partners purified
[17] = target: PTB without the ARM linker (Mint2 residues 364-538) (human, UniProt Q99767 364-538, Y524W); assay: stopped-flow fluorescence kinetics; settings: both partners purified
[18] = target: PARM^Y543A (human, UniProt Q99767 364-570, Y524W | Y543A); assay: stopped-flow fluorescence kinetics; settings: both partners purified
[19] = target: T5, PARM^WT (Mint2 residues 364-570); assay: stopped-flow fluorescence kinetics; settings: both partners purified
[20] = target: T6, pseudo-wild type (pWT) PARM domain of …; assay: stopped-flow fluorescence kinetics; settings: both partners purified
[21] = target: PARM^Y543E (human, UniProt Q99767 364-570, Y524W | Y543E); assay: stopped-flow fluorescence kinetics; settings: both partners purified

Molecule: C[C@@H](O)[C@H](NC(=O)[C@@H]1CCCN1C(=O)[C@H](CC(N)=O)NC(=O)[C@H](CCC(=O)O)NC(=O)[C@H](Cc1ccc(O)cc1)NC(=O)CNC(=O)[C@H](CC(N)=O)NC(=O)CNC(=O)[C@H](CC(N)=O)NC(=O)[C@H](CC(N)=O)NS(=O)(=O)c1cccc2c(N(C)C)cccc12)C(=O)N[C@@H](Cc1ccc(O)cc1)C(=O)N[C@@H](CCCCN)C(=O)N[C@@H](Cc1ccccc1)C(=O)N[C@@H](Cc1cccc2ccccc12)C(=O)N[C@@H](CCC(=O)O)C(=O)O [Peptide F765Nal1]
- Kd [1]: 1500 nM
- Ki [2]: 560 nM
- Ki [3]: 2600 nM
- Kd [4]: 500 nM
- Kd [5]: 120 nM
- Ki [6]: 1100 nM
- Ki [7]: 1000 nM

Molecule: C[C@H](NC(=O)[C@H](CC(N)=O)NC(=O)[C@H](CCC(=O)O)NC(=O)[C@H](Cc1ccc(O)cc1)NC(=O)CNC(=O)[C@H](CC(N)=O)NC(=O)CNC(=O)[C@H](CC(N)=O)NC(=O)[C@H](CC(N)=O)NS(=O)(=O)c1cccc2c(N(C)C)cccc12)C(=O)N[C@H](C(=O)N[C@@H](Cc1ccc(O)cc1)C(=O)N[C@@H](CCCCN)C(=O)N[C@@H](Cc1ccccc1)C(=O)N[C@@H](Cc1ccccc1)C(=O)N[C@@H](CCC(=O)O)C(=O)O)[C@@H](C)O [Peptide P760A]
- Ki [8]: 40000 ± 800 nM

Molecule: C[C@@H](O)[C@H](NC(=O)[C@@H]1CCCN1C(=O)[C@H](CC(N)=O)NC(=O)[C@H](CCC(=O)O)NC(=O)[C@H](Cc1ccc(O)cc1)NC(=O)CNC(=O)[C@H](CC(N)=O)NC(=O)CNC(=O)[C@H](CC(N)=O)NC(=O)[C@H](CC(N)=O)NS(=O)(=O)c1cccc2c(N(C)C)cccc12)C(=O)N[C@@H](Cc1ccc(O)cc1)C(=O)N[C@@H](CCCCN)C(=O)N[C@@H](Cc1cccc2ccccc12)C(=O)N[C@@H](Cc1ccccc1)C(=O)N[C@@H](CCC(=O)O)C(=O)O [Peptide F764Nal1]
- Kd [1]: 1100 nM
- kon ([1]; pH 7.4): 1.2e+06 M⁻¹ s⁻¹
- koff ([1]; stopped flow, same buffer, 25 °C, from fit of kobs vs peptide concentration, or displacement with 50–150 µM APP^WT when not well-defined): 1.3 s⁻¹
- Ki [2]: 290 nM
- Ki [3]: 1300 nM
- Kd [4]: 490 nM
- koff [4]: 1.3 s⁻¹
- kon ([4]; pH 7.4): 2.5e+06 M⁻¹ s⁻¹
- Kd [9]: 430 nM
- koff [9]: 1.2 s⁻¹
- kon ([9]; pH 7.4): 2.9e+06 M⁻¹ s⁻¹
- Kd [5]: 70 nM
- koff [5]: 2.3 s⁻¹
- kon ([5]; pH 7.4): 3.1e+07 ± 1e+06 M⁻¹ s⁻¹
- Ki [6]: 470 ± 30 nM
- Ki [7]: 500 nM
- Ki [8]: 500 nM

Molecule: {TAMRA}-NNGNGYENPTYKFFE [(TAMRA)-NNG-NGYENPTYKFFE]
- binding result [10]: binds
- binding result [11]: binds

Molecule: NGYENPTYKFFE [APP^WT 12-mer (NGYENPTYKFFE), unlabelled]
- Ki [12]: 3500 nM
- Ki [13]: 740 nM
- Ki [14]: 1100 nM
- Ki [15]: 1100 nM
- Ki [16]: 3200 nM

Molecule: Dansyl-NGYENPTYKFFE [dansyl-APP^WT]
- koff [17]: ~2 s⁻¹
- kon [17]: 1.1e+07 M⁻¹ s⁻¹
- ratio of Kd values for PARM and PTB [17]: 0.057
- fold increase in kon against PARM [18]: 2.5 fold
- koff [18]: ~2 s⁻¹
- koff [19]: 1.2 ± 0.05 s⁻¹
- kon [19]: 380000 ± 3000 M⁻¹ s⁻¹
- koff [20]: 2.3 ± 0.08 s⁻¹
- kon [20]: 390000 ± 4000 M⁻¹ s⁻¹
- fold increase in kon against PARM [21]: 2.5 fold
- koff [21]: ~2 s⁻¹

— publication PMC8291497 (ACS Chemical Biology, 2021)
